Data as given in patent US11566007B2, “Ras inhibitors” (Revolution Medicines, Inc., priority 2019, dated 2023).

Experiments:
NRAS WT = NRAS WT (Homo sapiens (Human), UniProt P01111+P62937); assay: Ras-Raf (BRAF RBD) disruption / FRET / MOA assay, NRAS WT; type: biochemical; conditions: read-out: IC50* NRAS WT FRET data
In short: (§1)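 Compounds were tested as a 10-point 3-fold dilution series from 30 μM final for their ability to drive ternary complex formation between nucleotide-loaded Ras and cyclophilin A, displacing the BRAF RBD. After 3 h at 25° C., anti-His Eu-W1024 (10 nM) and anti-GST allophycocyanin (50 nM) were added for 1.5 h. A TR-FRET ratio decrease versus DMSO gave IC50.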

KRAS G12S = KRAS G12S (Homo sapiens (Human), UniProt P01116+P62937, G12S); assay: Ras-Raf (BRAF RBD) disruption / FRET / MOA assay, KRAS G12S; type: biochemical; conditions: Ras-Raf disruption/FRET/MOA assay; class symbols; read-out: KRAS G12S FRET data IC50
Sequence of KRAS G12S (P01116-2 other isoform, or with tags, fused parts or gaps G12S): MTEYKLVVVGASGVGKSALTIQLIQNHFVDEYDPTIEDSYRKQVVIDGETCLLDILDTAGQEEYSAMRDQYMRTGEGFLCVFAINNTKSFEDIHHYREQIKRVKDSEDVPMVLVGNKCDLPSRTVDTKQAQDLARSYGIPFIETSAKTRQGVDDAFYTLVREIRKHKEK
Sequence of KRAS G12S (P62937 whole entry): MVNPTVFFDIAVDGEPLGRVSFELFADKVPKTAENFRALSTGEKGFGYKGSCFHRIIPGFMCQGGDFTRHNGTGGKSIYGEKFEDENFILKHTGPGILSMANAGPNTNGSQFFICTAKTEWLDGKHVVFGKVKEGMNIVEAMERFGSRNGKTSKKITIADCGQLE
In short: (§2)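 TR-FRET read-out: a drop in ratio relative to DMSO wells marks disruption of the Ras:RAF complex, reported as IC50. Compounds (3-fold series, 10 points, top 30 μM final) incubated 3 h at 25° C before Eu-anti-His 10 nM and APC-anti-GST 50 nM, 1.5 h more.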

NRAS G12C = NRAS G12C (Homo sapiens (Human), UniProt P01111+P62937, G12C); assay: Ras-Raf (BRAF RBD) disruption / FRET / MOA assay, NRAS G12C; type: biochemical; conditions: read-out: IC50* NRAS G12C FRET data
Sequence of NRAS G12C (P01111 whole entry G12C): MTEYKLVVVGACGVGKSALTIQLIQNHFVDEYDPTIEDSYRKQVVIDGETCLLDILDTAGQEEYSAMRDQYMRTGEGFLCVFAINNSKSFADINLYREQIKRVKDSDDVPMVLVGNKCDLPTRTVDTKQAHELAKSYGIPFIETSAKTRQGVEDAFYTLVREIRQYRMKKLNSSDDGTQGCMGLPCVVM
Sequence of NRAS G12C (P62937 whole entry): as the sequence (P62937 whole entry) above
In short: as §2

KRAS Q61H = KRAS Q61H (Homo sapiens (Human), UniProt P01116+P62937, Q61H); assay: Ras-Raf (BRAF RBD) disruption / FRET / MOA assay, KRAS Q61H; type: biochemical; conditions: Ras-Raf disruption/FRET/MOA assay; class symbols; read-out: KRAS Q61H FRET data IC50
Sequence of KRAS Q61H (P01116-2 other isoform, or with tags, fused parts or gaps Q61H): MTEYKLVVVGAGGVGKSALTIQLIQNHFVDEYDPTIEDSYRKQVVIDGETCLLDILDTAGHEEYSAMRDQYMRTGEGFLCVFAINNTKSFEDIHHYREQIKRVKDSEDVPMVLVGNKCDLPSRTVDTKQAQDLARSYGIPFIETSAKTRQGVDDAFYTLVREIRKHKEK
Sequence of KRAS Q61H (P62937 whole entry): as the sequence (P62937 whole entry) above
In short: as §1

NCI-H358 (K-Ras G12C) = assay: CellTiter-Glo cell viability assay, NCI-H358; type: cell-based, human; conditions: Homo sapiens, NCI-H358, 120 h, NCI-H358, 5-day treatment; class symbols; read-out: Additional H358 Cell Viability assay data (K-Ras G12C, IC50)
In short: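 Steps: compound dispensed into wells holding cells; incubation to day 5; ~30 min room-temperature equilibration; luminescence read; sample signal divided by mean DMSO signal, times 100; four-parameter logistic curve fit.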

NRAS Q61K = NRAS Q61K (Homo sapiens (Human), UniProt P01111+P62937, Q61K); assay: Ras-Raf (BRAF RBD) disruption / FRET / MOA assay, NRAS Q61K; type: biochemical; conditions: NRAS Q61K; Ras-Raf disruption/FRET/MOA assay; read-out: IC50* NRAS Q61K FRET data
Sequence of NRAS Q61K (P01111 whole entry Q61K): as the sequence (P01111 whole entry G12C) above, with C12G, Q61K counted along it
Sequence of NRAS Q61K (P62937 whole entry): as the sequence (P62937 whole entry) above
In short: as §1

KRAS WT = KRAS WT (Homo sapiens (Human), UniProt P01116+P62937); assay: Ras-Raf (BRAF RBD) disruption / FRET / MOA assay, KRAS WT; type: biochemical; conditions: read-out: IC50* KRAS WT FRET data
Sequence of KRAS WT (P01116-2 other isoform, or with tags, fused parts or gaps): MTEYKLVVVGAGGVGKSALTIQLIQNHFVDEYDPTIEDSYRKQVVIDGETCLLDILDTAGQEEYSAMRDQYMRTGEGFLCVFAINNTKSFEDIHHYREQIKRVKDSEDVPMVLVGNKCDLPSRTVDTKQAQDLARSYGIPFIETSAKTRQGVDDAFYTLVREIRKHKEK
Sequence of KRAS WT (P62937 whole entry): as the sequence (P62937 whole entry) above
In short: as §2

Sequence of NRAS WT (P01111 whole entry): as the sequence (P01111 whole entry G12C) above, with C12G counted along it
Sequence of NRAS WT (P62937 whole entry): as the sequence (P62937 whole entry) above

SMILES	IC50 (NRAS WT) [nM]	IC50 (KRAS G12S) [nM]	IC50 (NRAS G12C) [nM]	IC50 (KRAS Q61H) [nM]	IC50 (NCI-H358 (K-Ras G12C)) [nM]	IC50 (NRAS Q61K) [nM]	IC50 (KRAS WT) [nM]
C=CC(=O)N1C[C@H](C)N(C(=O)N(C)[C@H](C(=O)N[C@H]2Cc3nc(cs3)-c3ccc4c(c3)c(c(-c3cccnc3[C@H](C)OC)n4CC)CC(C)(C)COC(=O)[C@@H]3CCCN(N3)C2=O)C(C)C)[C@@H](C)C1 (atropisomer, axis not shown) [Example A386]	10 to 100	100 to 1000	10 to 100	10 to 100	10 to 100	10 to 100	10 to 100
C=CC(=O)N1C[C@@H](C)N(C(=O)N(C)[C@H](C(=O)N[C@H]2Cc3nc(cs3)-c3ccc4c(c3)c(c(-c3cccnc3[C@H](C)OC)n4CC)CC(C)(C)COC(=O)[C@@H]3CCCN(N3)C2=O)C(C)C)[C@@H](C)C1 (atropisomer, axis not shown) [Example A387]	10 to 100	100 to 1000	10 to 100	10 to 100	10 to 100	10 to 100	10 to 100
C=CC(=O)N1CC2(CCN(C(=O)N(C)[C@H](C(=O)N[C@H]3Cc4nc(cs4)-c4ccc5c(c4)c(c(-c4cccnc4[C@H](C)OC)n5CC)CC(C)(C)COC(=O)[C@@H]4CCCN(N4)C3=O)C(C)C)CC2)C1 (atropisomer, axis not shown) [Example A394]	100 to 1000	100 to 1000	10 to 100	10 to 100	< 10	10 to 100	100 to 1000
C=CC(=O)N1CCN(C(=O)N(C)[C@H](C(=O)N[C@H]2Cc3nc(cs3)-c3ccc4c(c3)c(c(-c3cccnc3[C@H](C)OC)n4CC)CC(C)(C)COC(=O)[C@@H]3CCCN(N3)C2=O)C(C)C)CC12CC2 (atropisomer, axis not shown) [Example A417]	10 to 100	100 to 1000	10 to 100	10 to 100	10 to 100	10 to 100	100 to 1000
CCn1c(-c2cccnc2[C@H](C)OC)c2c3cc(ccc31)-c1csc(n1)C[C@H](NC(=O)CCOC1CN(C(=O)C#CC(C)(C)N(C)C)C1)C(=O)N1CCC[C@H](N1)C(=O)OCC(C)(C)C2 (atropisomer, axis not shown) [Example A427, 3-((1-(4-(dimethylamino)-4-methylpent-2-ynoyl)azetidin-3-yl)oxy)-N-((6^3S,4S,Z)-1^1-ethyl-1^2-(2-((S)-1-methoxyethyl)pyridin-3-yl)-10,10-dimethyl-5,7-dioxo-6^1,6^2,6^3,6^4,6^5,6^6-hexahydro-1^1H-8-oxa-2(4,2)-thiazola-1(5,3)-indola-6(1,3)-pyridazinacycloundecaphane-4-yl)propanamide]	1000 to 10000	1000 to 10000	< 10	1000 to 10000	< 10	1000 to 10000	1000 to 10000
C=CC(=O)N1CC[C@H](C(=O)N(C)[C@H](C(=O)N[C@H]2Cc3cccc(c3)-c3ccc4c(c3)c(c(-c3cc5c(nc3[C@H](C)OC)CCN(C)C5)n4CC)CC(C)(C)COC(=O)[C@@H]3CCCN(N3)C2=O)C(C)C)C1 (atropisomer, axis not shown) [Example A461]	1000 to 10000	1000 to 10000	100 to 1000	1000 to 10000	< 10	1000 to 10000	1000 to 10000
C=CC(=O)N(C)C1CN(C(=O)N(C)[C@H](C(=O)N[C@H]2Cc3nc(cs3)-c3ccc4c(c3)c(c(-c3cccnc3[C@H](C)OC)n4CC)CC(C)(C)COC(=O)[C@@H]3CCCN(N3)C2=O)C(C)C)C1 (atropisomer, axis not shown) [Example A463]	100 to 1000	100 to 1000	10 to 100	10 to 100	< 10	10 to 100	100 to 1000
C=CC(=O)N1CC[C@H](C(=O)N(C)[C@H](C(=O)N[C@H]2Cc3nc(cs3)-c3ccc4c(c3)c(c(-c3cc5c(nc3[C@H](C)OC)CCN(C)C5)n4CC)CC(C)(C)COC(=O)[C@@H]3CCCN(N3)C2=O)C(C)C)C1 (atropisomer, axis not shown) [Example A472]	1000 to 10000	1000 to 10000	100 to 1000	1000 to 10000	< 10	1000 to 10000	1000 to 10000
